Reference: PubChem BioAssay (NCI)
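These data come from cells grown in 96-well plates and exposed to compound for 48 hours at five concentrations. GI50 marks 50% less growth. At the TGI there is no net growth.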

How the values were obtained:
Test in all cases: inhibition of tumour cell growth, NCI panel, 48 h
[1] = tested on: OVCAR-3 ovarian
[2] = tested on: BT-549 breast
[3] = tested on: SF-295 CNS
[4] = tested on: RPMI-8226 leukemia
[5] = tested on: A498 renal
[6] = tested on: ACHN renal
[7] = tested on: MALME-3M melanoma
[8] = tested on: NCI-H460 lung
[9] = tested on: SNB-75 CNS
[10] = tested on: UACC-62 melanoma
[11] = tested on: UACC-257 melanoma
[12] = tested on: MCF7 breast
[13] = tested on: MDA-MB-231 breast
[14] = tested on: HCT-116 colon
[15] = tested on: HCC-2998 colon
[16] = tested on: MDA-MB-435
[17] = tested on: 786-0 renal
[18] = tested on: HOP-92 NSCLC
[19] = tested on: UO-31 renal
[20] = tested on: SNB-19 CNS
[21] = tested on: SF-268 CNS
[22] = tested on: TK-10 renal
[23] = tested on: U251 CNS
[24] = tested on: LOX IMVI melanoma
[25] = tested on: DU-145 prostate
[26] = tested on: K-562 leukemia
[27] = tested on: M14 melanoma
[28] = tested on: SK-MEL-5 melanoma
[29] = tested on: SF-539 CNS
[30] = tested on: NCI/ADR-RES ovarian
[31] = tested on: SK-MEL-2 melanoma
[32] = tested on: A549 NSCLC
[33] = tested on: CCRF-CEM leukemia
[34] = tested on: KM12 colon
[35] = tested on: CAKI-1 renal
[36] = tested on: PC-3 prostate
[37] = tested on: MOLT-4 leukemia
[38] = tested on: NCI-H522 lung
[39] = tested on: OVCAR-8 ovarian
[40] = tested on: COLO 205 colon
[41] = tested on: SW-620 colon
[42] = tested on: NCI-H23 lung
[43] = tested on: OVCAR-4 ovarian
[44] = tested on: NCI-H226 lung
[45] = tested on: T-47D breast
[46] = tested on: SR leukemia
[47] = tested on: EKVX NSCLC
[48] = tested on: SK-MEL-28 melanoma
[49] = tested on: HL-60(TB) leukemia
[50] = tested on: SN12C renal
[51] = tested on: HS 578T breast
[52] = tested on: IGROV1 ovarian
[53] = tested on: RXF 393 renal
[54] = tested on: SK-OV-3 ovarian
[55] = tested on: OVCAR-5 ovarian
[56] = tested on: HCT-15 colon
[57] = tested on: HOP-62 NSCLC
[58] = tested on: HT29 colon

## O=C1c2c(Cl)c(Cl)c(Cl)c(Cl)c2C(=O)C2(Cl)CC=CCC12Cl (stereo not drawn)
[1]
  GI50: 2.02 µM
  TGI: 3.48 µM
[2]
  GI50: 1.85 µM
  TGI: 3.38 µM
[3]
  GI50: 3.35 µM
  TGI: 11.2 µM
[4]
  GI50: 2.31 µM
  TGI: 6.12 µM
[5]
  GI50: 12.7 µM
  TGI: 25.3 µM
[6]
  GI50: 1.89 µM
  TGI: 3.37 µM
[7]
  GI50: 2.03 µM
  TGI: 4.16 µM
[8]
  GI50: 3.09 µM
  TGI: 11 µM
[9]
  GI50: 1.84 µM
  TGI: 3.34 µM
[10]
  GI50: 1.67 µM
  TGI: 3.27 µM
[11]
  GI50: 1.53 µM
  TGI: 2.95 µM
[12]
  GI50: 1.58 µM
  TGI: 3.55 µM
[13]
  GI50: 1.71 µM
  TGI: 3.13 µM
[14]
  GI50: 1.76 µM
  TGI: 3.32 µM
[15]
  GI50: 1.78 µM
  TGI: 3.3 µM
[16]
  GI50: 2.06 µM
  TGI: 4.32 µM
[17]
  GI50: 2 µM
  TGI: 3.62 µM
[18]
  GI50: 2.03 µM
  TGI: 3.87 µM
[19]
  GI50: 1.71 µM
  TGI: 3.28 µM
[20]
  GI50: 1.64 µM
  TGI: 3.01 µM
[21]
  GI50: 1.76 µM
  TGI: 3.2 µM
[22]
  GI50: 2.06 µM
  TGI: 3.57 µM
[23]
  GI50: 1.67 µM
  TGI: 3.06 µM
[24]
  GI50: 1.21 µM
  TGI: 2.56 µM
[25]
  GI50: 1.93 µM
  TGI: 3.36 µM
[26]
  GI50: 1.09 µM
  TGI: 3.59 µM
[27]
  GI50: 1.67 µM
  TGI: 3.19 µM
[28]
  GI50: 1.77 µM
  TGI: 3.79 µM
[29]
  GI50: 2.06 µM
  TGI: 4.05 µM
[30]
  GI50: 3.41 µM
  TGI: 13.2 µM
[31]
  GI50: 2.48 µM
  TGI: 4.89 µM
[32]
  GI50: 4.28 µM
  TGI: 16.3 µM
[33]
  GI50: 1.76 µM
  TGI: 7.28 µM
[34]
  GI50: 1.84 µM
  TGI: 3.56 µM
[35]
  GI50: 1.93 µM
  TGI: 3.68 µM
[36]
  GI50: 1.8 µM
  TGI: 3.51 µM
[37]
  GI50: 2.39 µM
  TGI: 6.36 µM
[38]
  GI50: 1.76 µM
  TGI: 3.52 µM
[39]
  GI50: 1.64 µM
  TGI: 3.12 µM
[40]
  GI50: 1.52 µM
  TGI: 2.89 µM
[41]
  GI50: 1.49 µM
  TGI: 3.08 µM
[42]
  GI50: 1.84 µM
  TGI: 3.94 µM
[43]
  GI50: 1.9 µM
  TGI: 3.41 µM
[44]
  GI50: 1.97 µM
  TGI: 4.88 µM
[45]
  GI50: 1.74 µM
  TGI: 4.01 µM
[46]
  GI50: 1.15 µM
  TGI: 4.38 µM
[47]
  GI50: 2.64 µM
  TGI: 7.81 µM
[48]
  GI50: 1.8 µM
  TGI: 3.28 µM
[49]
  GI50: 1.9 µM
  TGI: 5.04 µM
[50]
  GI50: 1.78 µM
  TGI: 3.22 µM
[51]
  GI50: 2.04 µM
  TGI: 5.88 µM
[52]
  GI50: 1.81 µM
  TGI: 3.86 µM
[53]
  GI50: 1.63 µM
  TGI: 3.01 µM
[54]
  GI50: 2.92 µM
  TGI: 10.9 µM
[55]
  GI50: 2.51 µM
  TGI: 5.74 µM
[56]
  GI50: 1.19 µM
  TGI: 2.83 µM
[57]
  GI50: 1.86 µM
  TGI: 3.65 µM

## O=C1NC(=NCCc2ccccn2)S/C1=C\c1ccc2ncccc2c1
[1]
  GI50: 9.88 µM
  TGI: > 25 µM
[2]
  GI50: 10.5 µM
  TGI: > 25 µM
[3]
  GI50: > 16.1 µM
  TGI: > 25 µM
[4]
  GI50: 13.1 µM
  TGI: > 25 µM
[5]
  GI50: 4.62 µM
  TGI: 21.1 µM
[6]
  GI50: 8.2 µM
  TGI: > 25 µM
[7]
  GI50: 18.1 µM
  TGI: > 25 µM
[8]
  GI50: 8.27 µM
  TGI: > 25 µM
[9]
  GI50: 1.69 µM
  TGI: > 20.7 µM
[10]
  GI50: 9.73 µM
  TGI: > 25 µM
[11]
  GI50: 15.4 µM
  TGI: > 25 µM
[12]
  GI50: 10.5 µM
  TGI: > 25 µM
[13]
  GI50: 18.5 µM
  TGI: > 25 µM
[14]
  GI50: 8.25 µM
  TGI: > 25 µM
[15]
  GI50: > 21.4 µM
  TGI: > 25 µM
[16]
  GI50: 9.59 µM
  TGI: > 25 µM
[17]
  GI50: 16.8 µM
  TGI: > 25 µM
[18]
  GI50: 9.33 µM
  TGI: > 25 µM
[19]
  GI50: 7.91 µM
  TGI: 24.3 µM
[20]
  GI50: 11.1 µM
  TGI: > 25 µM
[21]
  GI50: 11.4 µM
  TGI: > 25 µM
[22]
  GI50: 7.33 µM
  TGI: 24.5 µM
[23]
  GI50: 9.23 µM
  TGI: > 25 µM
[24]
  GI50: 13.3 µM
  TGI: > 25 µM
[25]
  GI50: 11.7 µM
  TGI: > 25 µM
[26]
  GI50: 9.99 µM
  TGI: > 25 µM
[27]
  GI50: 12.7 µM
  TGI: > 25 µM
[28]
  GI50: 10.8 µM
  TGI: > 25 µM
[29]
  GI50: 6.68 µM
  TGI: > 25 µM
[30]
  GI50: > 18.5 µM
  TGI: > 25 µM
[31]
  GI50: 9.02 µM
  TGI: > 22.2 µM
[32]
  GI50: 8.29 µM
  TGI: > 25 µM
[33]
  GI50: 10.6 µM
  TGI: > 25 µM
[34]
  GI50: 18.2 µM
  TGI: > 25 µM
[35]
  GI50: 6.94 µM
  TGI: > 21.7 µM
[36]
  GI50: 15.1 µM
  TGI: > 25 µM
[37]
  GI50: 8.04 µM
  TGI: 22.6 µM
[38]
  GI50: 9.02 µM
  TGI: > 22.6 µM
[39]
  GI50: 12.6 µM
  TGI: > 25 µM
[40]
  GI50: 9.05 µM
  TGI: > 25 µM
[41]
  GI50: 8.33 µM
  TGI: > 25 µM
[42]
  GI50: 11.1 µM
  TGI: > 25 µM
[43]
  GI50: 14.1 µM
  TGI: > 25 µM
[44]
  GI50: 11 µM
  TGI: > 25 µM
[45]
  GI50: 11 µM
  TGI: > 25 µM
[46]
  GI50: 4.21 µM
  TGI: 14 µM
[48]
  GI50: 15.4 µM
  TGI: > 25 µM
[49]
  GI50: 7.66 µM
  TGI: > 25 µM
[50]
  GI50: 9.33 µM
  TGI: > 25 µM
[51]
  GI50: 9.79 µM
  TGI: > 20.2 µM
[52]
  GI50: 9.29 µM
  TGI: > 25 µM
[53]
  GI50: 8.97 µM
  TGI: > 25 µM
[54]
  GI50: 9.1 µM
  TGI: > 25 µM
[55]
  GI50: > 22.3 µM
  TGI: > 25 µM
[58]
  GI50: 13.8 µM
  TGI: > 25 µM
[56]
  GI50: 7.2 µM
  TGI: > 25 µM
[57]
  GI50: 13.9 µM
  TGI: > 25 µM
